The test deals with P388 leukemia ip, CD2F1 mice, survival T/C. The test is described as follows: NCI In Vivo Anticancer Drug Screen. Data for tumor model P388 Leukemia (intraperitoneal) in CD2F1 (CDF1) mice. Particulars: endpoint: median survival time, higher = longer survival. An outline of the steps:
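Mice carrying the transplanted tumor received test compound or vehicle. Survival was recorded in each group, and the value is the treated-group measurement divided by that of the vehicle-treated control group.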

[1] abbreviates: dose: 50.0 mg/kg/injection, schedule: Q01DX005 (ip), vehicle: Klucel (hydroxypropylcellulose) (HPC).
Setting [2] is: dose: 100.0 mg/kg/injection, schedule: Q01DX005 (ip), vehicle: Klucel (hydroxypropylcellulose) (HPC).
[3] abbreviates: dose: 200.0 mg/kg/injection, schedule: Q01DX005 (ip), vehicle: Klucel (hydroxypropylcellulose) (HPC).
[4] abbreviates: dose: 50.0 mg/kg/injection, schedule: Q01DX009 (ip), vehicle: saline with Tween-80.
Where [5] appears, read: dose: 100.0 mg/kg/injection, schedule: Q01DX009 (ip), vehicle: saline with Tween-80.
[6] abbreviates: dose: 100.0 mg/kg/injection, schedule: Q04DX003 (ip), vehicle: saline with Tween-80.
Setting [7] is: dose: 200.0 mg/kg/injection, schedule: Q04DX003 (ip), vehicle: saline with Tween-80.
Setting [8] is: dose: 200.0 mg/kg/injection, schedule: Q01DX009 (ip), vehicle: saline with Tween-80.
Where [9] appears, read: dose: 100.0 mg/kg/injection, schedule: Q04DX003 (ip), vehicle: Klucel (hydroxypropylcellulose) (HPC).
Setting [10] is: dose: 200.0 mg/kg/injection, schedule: Q04DX003 (ip), vehicle: Klucel (hydroxypropylcellulose) (HPC).
Setting [11] is: dose: 400.0 mg/kg/injection, schedule: Q04DX003 (ip), vehicle: Klucel (hydroxypropylcellulose) (HPC).
Where [12] appears, read: dose: 7.5 mg/kg/injection, schedule: Q01DX005 (ip), vehicle: saline with Tween-80.
The mark [13] stands for this setting: dose: 15.0 mg/kg/injection, schedule: Q01DX005 (ip), vehicle: saline with Tween-80.

Structures are written as SMILES. “And” between values parts separate entries of the source, which are not always exact repeats. Identical values can stand only once. Toxic doses and inconclusive results are not listed.

For the compound `O=C(O)C1CCC=CCC1`, the T/C is 100 % of control (dose: 50.0 mg/kg/injection, schedule: Q01DX009 (ip), vehicle: other); 104 % of control (dose: 100.0 mg/kg/injection, schedule: Q01DX009 (ip), vehicle: other); 100 % of control (dose: 200.0 mg/kg/injection, schedule: Q01DX009 (ip), vehicle: other).

Take `CCC1C2CCCCN3C(C4CC(C)C(=O)O4)CC(C4C(C)C(=O)OC14)C23` (stereo not drawn): the T/C runs as follows: under setting [1], 101 % of control; under setting [2], 96 % of control; under setting [3], 97 % of control; (dose: 400.0 mg/kg/injection, schedule: Q01DX005 (ip), vehicle: Klucel (hydroxypropylcellulose) (HPC)) 91 % of control.

Regarding `CC1(CNC(=O)C(=O)NCC2(C)CO2)CO1` (stereo not drawn), the T/C was 90 % of control (dose: 6.25 mg/kg/injection, schedule: Q04DX003 (ip), vehicle: saline with Tween-80); 109 % of control (dose: 17.5 mg/kg/injection, schedule: Q04DX003 (ip), vehicle: saline with Tween-80); 150 % of control (dose: 25.0 mg/kg/injection, schedule: Q01DX009 (ip), vehicle: saline with Tween-80); 122 % of control (dose: 25.0 mg/kg/injection, schedule: Q04DX003 (ip), vehicle: saline with Tween-80); 172 % of control under setting [4]; 186 % of control under setting [5]. In addition, the T/C under setting [6] was 168 % of control; the T/C (dose: 132.0 mg/kg/injection, schedule: Q04DX003 (ip), vehicle: saline with Tween-80) is 172 % of control; the T/C under setting [7] is 163 % of control and 195 % of control; the T/C (dose: 300.0 mg/kg/injection, schedule: Q04DX003 (ip), vehicle: saline with Tween-80) was 195 % of control; the T/C (dose: 400.0 mg/kg/injection, schedule: Q04DX003 (ip), vehicle: saline with Tween-80) is 109 % of control.

With `CCCCCCCCCC(C)(C)NP(=S)(OCC)OCC` (tested in a mixture with another compound), the T/C is, setting by setting: (dose: 50.0 mg/kg/injection, schedule: Q01DX009 (ip), vehicle: Klucel (hydroxypropylcellulose) (HPC)) 105 % of control; (dose: 100.0 mg/kg/injection, schedule: Q01DX009 (ip), vehicle: Klucel (hydroxypropylcellulose) (HPC)) 105 % of control; (dose: 200.0 mg/kg/injection, schedule: Q01DX009 (ip), vehicle: Klucel (hydroxypropylcellulose) (HPC)) 100 % of control.

In the case of `CCCCC(NC(=O)c1ccccc1)C(=O)O` (stereo not drawn), the T/C under setting [4] was 92 % of control, the T/C under setting [5] is 100 % of control and the T/C under setting [8] was 98 % of control.

Consider `N#C/C(=C\c1cccs1)C(=O)c1ccco1`, for which the T/C runs as follows: under setting [4], 101 % of control; under setting [5], 100 % of control; under setting [8], 95 % of control.

Turning to `C=C(Cl)CNc1ccccc1C(=O)OC`, the T/C (dose: 25.0 mg/kg/injection, schedule: Q04DX003 (ip), vehicle: Klucel (hydroxypropylcellulose) (HPC)) was 100 % of control; the T/C (dose: 50.0 mg/kg/injection, schedule: Q04DX003 (ip), vehicle: Klucel (hydroxypropylcellulose) (HPC)) was 100 % of control and 103 % of control; the T/C under setting [9] was 100 % of control and 110 % of control; the T/C under setting [10] is 103 % of control and 106 % of control; the T/C under setting [11] was 100 % of control and 108 % of control.

For the compound `Nc1ccc2oc3ccccc3c2c1`, the T/C under setting [6] was 100 % of control and the T/C under setting [7] is 103 % of control.

Consider `CC(C)CCNCC(N)C(=O)O` (stereo not drawn), for which the T/C is 100 % of control under setting [9], 98 % of control under setting [10] and 99 % of control under setting [11].

For the compound `CC(=O)NCc1cc(C)c(CBr)cc1CBr`, the T/C was 103 % of control (dose: 0.78 mg/kg/injection, schedule: Q01DX009 (ip), vehicle: distilled water + Tween-80); 107 % of control (dose: 1.56 mg/kg/injection, schedule: Q01DX009 (ip), vehicle: distilled water + Tween-80); 109 % of control (dose: 3.12 mg/kg/injection, schedule: Q01DX009 (ip), vehicle: distilled water + Tween-80); 116 % of control (dose: 6.25 mg/kg/injection, schedule: Q01DX009 (ip), vehicle: distilled water + Tween-80); 93 % of control (dose: 12.5 mg/kg/injection, schedule: Q01DX009 (ip), vehicle: distilled water + Tween-80).

Consider `N#CN=CN1CCN(c2ccccc2)CC1`, for which the T/C by setting is: under setting [4], 100 % of control; under setting [5], 97 % of control; under setting [8], 99 % of control.

For `Cc1cc(O)c(CCC(C)CCCC(C)C)c(O)c1` (stereo not drawn), the T/C is 100 % of control under setting [1], 100 % of control under setting [2] and 110 % of control under setting [3].

`O=C1/C(=C\c2ccccc2)C2OCC=C3CN4CCC56c7ccccc7N1C5C2C3CC46` (stereo not drawn): the T/C is, setting by setting: under setting [12], 106 % of control; under setting [13], 108 % of control; (dose: 30.0 mg/kg/injection, schedule: Q01DX005 (ip), vehicle: saline with Tween-80) 99 % of control.

Regarding `O=C(Nc1ccc(Cl)cc1)c1cc2c(cc1O)[nH]c1ccccc12`, the T/C is, setting by setting: (dose: 50.0 mg/kg/injection, schedule: Q01DX005 (ip), vehicle: saline with Tween-80) 92 % of control; (dose: 100.0 mg/kg/injection, schedule: Q01DX005 (ip), vehicle: saline with Tween-80) 96 % of control; (dose: 200.0 mg/kg/injection, schedule: Q01DX005 (ip), vehicle: saline with Tween-80) 98 % of control.

On to `CC(=O)Oc1ccc([N+](=O)[O-])cc1[N+](=O)[O-]`, for which the T/C is 97 % of control (dose: 6.25 mg/kg/injection, schedule: Q04DX002 (ip), vehicle: Klucel (hydroxypropylcellulose) (HPC)); 103 % of control (dose: 12.5 mg/kg/injection, schedule: Q04DX002 (ip), vehicle: Klucel (hydroxypropylcellulose) (HPC)); 100 % of control (dose: 25.0 mg/kg/injection, schedule: Q04DX002 (ip), vehicle: Klucel (hydroxypropylcellulose) (HPC)).

For the compound `N#CC(=O)Nc1cc(Cl)cc(Cl)c1`, the T/C reads like this: under setting [12], 100 % of control; under setting [13], 102 % of control.

As for `COc1cc2cc(c1Cl)N(C)C(=O)CC(OC(=O)C(C)N(C)C(=O)C(C)C)C1(C)OC1C(C)C1CC(OC)(NC(=O)O1)C(OC)/C=C/C=C(C)C2OC` (stereo not drawn), the T/C (dose: 16.0 mg/kg/injection, schedule: Q01DX009 (ip), vehicle: saline) was 98 % of control; the T/C (dose: 32.0 mg/kg/injection, schedule: Q01DX009 (ip), vehicle: saline) is 114 % of control; the T/C (dose: 64.0 mg/kg/injection, schedule: Q01DX009 (ip), vehicle: saline) was 100 % of control; the T/C (dose: 128.0 mg/kg/injection, schedule: Q01DX009 (ip), vehicle: saline) is 100 % of control; the T/C (dose: 4.0 micrograms/kg/injection, schedule: Q01DX009 (ip), vehicle: saline) was 99 % of control; the T/C (dose: 8.0 micrograms/kg/injection, schedule: Q01DX009 (ip), vehicle: saline) is 99 % of control. Moreover, the T/C (dose: 16.0 micrograms/kg/injection, schedule: Q01DX009 (ip), vehicle: saline) is 103 % of control and the T/C (dose: 32.0 micrograms/kg/injection, schedule: Q01DX009 (ip), vehicle: saline) is 111 % of control.

For `CC1CC(=O)c2c(O)ccc(Cl)c21` (stereo not drawn), the T/C runs as follows: under setting [1], 106 % of control; under setting [2], 104 % of control; under setting [3], 100 % of control.

`O=c1cccccc1[O][Sn]([Cl])([Cl])[O]c1cccccc1=O`: the T/C was 97 % of control (dose: 25.0 mg/kg/injection, schedule: Q01DX001 (ip), vehicle: Klucel (hydroxypropylcellulose) (HPC)); 99 % of control (dose: 50.0 mg/kg/injection, schedule: Q01DX001 (ip), vehicle: Klucel (hydroxypropylcellulose) (HPC)); 99 % of control (dose: 100.0 mg/kg/injection, schedule: Q01DX001 (ip), vehicle: Klucel (hydroxypropylcellulose) (HPC)).

Consider `N#CC1CCCC[N-]1.[NH-]CC[N-]CC[NH-].[Pt+4]` (stereo not drawn), for which the T/C by setting is: (dose: 6.25 mg/kg/injection, schedule: Q01DX009 (ip), vehicle: saline) 93 % of control; (dose: 12.5 mg/kg/injection, schedule: Q01DX009 (ip), vehicle: saline) 97 % of control; (dose: 25.0 mg/kg/injection, schedule: Q01DX009 (ip), vehicle: saline) 100 % of control; (dose: 50.0 mg/kg/injection, schedule: Q01DX009 (ip), vehicle: saline) 97 % of control; (dose: 100.0 mg/kg/injection, schedule: Q01DX009 (ip), vehicle: saline) 89 % of control.

Source of the values: PubChem BioAssay AID330 (DTP/NCI, 2004).
